Patent publication US20150140123A1, “Protein expression analyses for identifying genotoxic compounds” (Merck Patent GmbH, priority 2012, published 2015)
Counter-ions that a name gives are not always drawn. Like-named read-outs stand apart in the source and are kept apart here.

Test system: HepG2 cells
Test: High content imaging cytotoxicity parameters: selected cell count per valid field (SCC) and CMFDA cytoplasm average intensity
Description: HepG2 cells (Order No. HB-8065, Lot. 58483209, ATCC, Manassas, USA) were cultured in DMEM/F12 with L-Glutamine and 15 mM Hepes supplemented with 10% (v/v) FBS, 1% (v/v) penicillin (10 kU/ml)/streptomycin (10 mg/ml) solution, 0.1% (v/v) gentamicin (50 mg/ml), and 1 mM sodium pyruvate at 37° C. and 5% CO2 in culture flasks. Depending on the experiment, an appropriate number of cells were seeded onto plates after detaching of the cells using trypsin and cells were cultured at 37° C. and 5% CO2 for 24 h prior to treatment. All experiments were performed three times with cells of passages 4-20.
Cells were seeded onto black Poly-D-Lysin coated 96-well-plates (BD Biocoat, Franklin Lakes, USA) (0.02×10^6 cells/well) and left 24 h for adherence and then treated with test compounds at a maximum concentration of 1 mM which is recommended by the ICH S2(R1) guideline (EMA, 2011). For each compound, nine concentrations were tested with 2-fold serial dilutions. DMSO 1% (v/v) served as vehicle control for the experiments. The treatment procedure was different for direct-genotoxic and pro-genotoxic compounds. The treatment for direct genotoxic compounds was ongoing and was repeated daily over 48 h. Pro-genotoxic compounds were incubated for 6 h together with metabolic activation system (to limit the cytotoxic effect of the S9-mixture). After this period, cells were washed with cell media followed by 18-repeated daily over 48 h. The metabolic activation system used consisted of the following components and concentrations: 8 mM MgCl2, 32.8 mM KCl, 12 mM NADPH, 124 mM phosphate buffer and 2500 pmol/ml cytochrome P450 (CYP) content in the pre-mixture corresponding to 2.4 mM MgCl2, 9.8 mM KCl, 3.6 mM NADPH, 37.2 mM phosphate buffer, and 750 pmol/ml CYP as final concentrations after dilution 1:3.33 with cell culture media.
After treatment, cells were rinsed with PBS (Gibco Invitrogen, Karlsruhe, Germany), and then stained with 10 μM CellTracker Green 5-Chloromethylfluorescein Diacetate (CMFDA) (Invitrogen, Karlsruhe, Germany) in cell culture media for 30 min. CMFDA is per se non-fluorescent and is hydrolyzed by esterase in viable cells to a fluorescent-dye. The reaction with thiol groups leads to a cell-impermeable fluorescent-dye-adduct. The esterase activity can be used as an indicator for viability of cells (Papadopoulos et al., 1994, J Immunol Methods 177, 101-11). Afterwards, cells were washed with PBS and fixed with 3.7% Formaldehyde (Sigma-Aldrich, Taufkirchen, Germany) in PBS for 20 min. After that, cells were washed with PBS and blocked and permeabilized with 2% donkey serum (Millipore, Schwalbach, Germany) and 0.25% Triton X-100 (Sigma-Aldrich, Taufkirchen, Germany) in PBS for 30 min. Primary antibodies were diluted in Blocking/Permeabilization solution to final concentrations of 4 μg/ml anti-p-Chk1 (Ser345) goat polyclonal antibody IgG (santa cruz, Santa Cruz, USA), 4 μg/ml anti-p-ATM (Ser1981) mouse monoclonal antibody IgG1K (Millipore, Schwalbach, Germany) and added to the cells. After incubation for 16-18 h, cells were washed with 0.05% Tween 20 (Calbiochem, Darmstadt, Germany) in PBS, and the secondary antibody/16 μM Hoechst staining solution Blocking/Permeabilization solution was added. Secondary antibodies were diluted 1:400 (Alexa Fluor 555 donkey anti-goat, Alexa Fluor 647 donkey anti-mouse, Invitrogen, Karlsruhe, Germany). After an incubation of 1 h, followed by two additional washing steps with 0.05% Tween 20, cells were washed with PBS and finally PBS was added and cells were measured.
Image acquisition was performed on the ArrayScan VTI HCS Reader (Cellomics, Pittsburgh, USA) using a 20× objective. To detect enough cells, 50 images starting at the middle of each well were gathered.
• Channel 1: selected cell count per valid field • Channel 2: CMFDA cytoplasm average intensity • Channel 3: p-Chk1 (Ser345) nucleus average intensity • Channel 4: p-ATM (Ser1981) nucleus average intensity

[1] = HepG2 cells, 48 h, CMFDA cytoplasm average intensity, with rat liver S9 (+S9)
[2] = HepG2 cells, 48 h, CMFDA cytoplasm average intensity, without metabolic activation (−S9)
[3] = HepG2 cells, 48 h, selected cell count per valid field, with rat liver S9 (+S9)
[4] = HepG2 cells, 48 h, selected cell count per valid field, without metabolic activation (−S9)

Structure (SMILES) | CMFDA +S9 highest conc. <50% cytotox. over control [1] [µM] | CMFDA −S9 highest conc. <50% cytotox. over control [2] [µM] | SCC +S9 highest conc. <50% cytotox. over control [3] [µM] | SCC −S9 highest conc. <50% cytotox. over control [4] [µM] | CMFDA +S9 highest conc. <50% cytotox. over control (human, 48 h) [µM] | CMFDA −S9 highest conc. <50% cytotox. over control (human, 48 h) [µM] | SCC +S9 highest conc. <50% cytotox. over control (human, 48 h) [µM] | SCC −S9 highest conc. <50% cytotox. over control (human, 48 h) [µM] | other results
COC(N)=O [Methyl carbamate] | 1000 | 1000 | 1000 | 1000 | – | – | – | – | –
COS(C)(=O)=O [Methylmethane sulfonate] | – | – | – | – | 250 | 500 | 500 | 250 | –
NC(=S)N(C1CCCCC1)C1CCCCC1 [N,N-dicyclohexyl thiourea] | – | – | – | – | 500 | 1000 | 1000 | 500 | –
Cn1c(N)nc2ncc(-c3ccccc3)cc21 [PhIP•HCl, 2-Amino-1-methyl-6-phenylimidazo[4,5-f]pyridine] | 1000 | 500 | 1000 | 500 | – | – | – | – | –
O=C1OC(=O)c2ccccc21 [Phthalic anhydride] | 1000 | 1000 | 1000 | 1000 | – | – | – | – | –
CC(=O)[C@H]1CC[C@H]2[C@@H]3CCC4=CC(=O)CC[C@]4(C)[C@H]3CC[C@]12C [Progesterone] | – | – | – | – | 250 | 62.5 | 500 | 125 | –
c1ccncc1 [Pyridine] | – | – | – | – | – | – | – | – | CMFDA +S9 highest conc. <50% cytotox. over control (human): 1000 µM; CMFDA −S9 highest conc. <50% cytotox. over control (human): 1000 µM; SCC +S9 highest conc. <50% cytotox. over control (human): 1000 µM; SCC −S9 highest conc. <50% cytotox. over control (human): 1000 µM
O=[As]O [Sodium arsenite] | 125 | 62.5 | 125 | 7.81 | – | – | – | – | –
O=C1NS(=O)(=O)c2ccccc21.[Na] [Sodium saccharin] | – | – | – | – | – | – | – | – | CMFDA +S9 highest conc. <50% cytotox. over control (human): 1000 µM; CMFDA −S9 highest conc. <50% cytotox. over control (human): 1000 µM; SCC +S9 highest conc. <50% cytotox. over control (human): 1000 µM; SCC −S9 highest conc. <50% cytotox. over control (human): 1000 µM
Cc1noc(NS(=O)(=O)c2ccc(N)cc2)c1C [Sulfisoxazole] | – | – | – | – | 1000 | 1000 | 1000 | 1000 | –
CC(=O)O[C@H]1C(=O)[C@@]2(C)[C@H]([C@H](OC(=O)c3ccccc3)[C@]3(O)C[C@H](OC(=O)[C@H](O)[C@@H](NC(=O)c4ccccc4)c4ccccc4)C(C)=C1C3(C)C)[C@]1(OC(C)=O)CO[C@@H]1C[C@@H]2O [Taxol] | – | – | – | – | 1000 | 1000 | 500 | 1000 | –
CC(C)(C)c1cc(O)ccc1O [Tertiary-butylhydroquinone] | – | – | – | – | 1000 | 125 | 1000 | 125 | –
CCCCC(CC)COP(=O)(OCC(CC)CCCC)OCC(CC)CCCC (stereo not drawn) [Tris(2-ethylhexyl)phosphate] | 1000 | 7.813 | 1000 | 500 | – | – | – | – | –
NC(N)=O [Urea] | 1000 | 1000 | 1000 | 1000 | – | – | – | – | –
CCCCCl [n-butyl chloride] | – | – | – | – | – | – | – | – | CMFDA +S9 highest conc. <50% cytotox. over control: 1000 µM; CMFDA −S9 highest conc. <50% cytotox. over control: 1000 µM; SCC +S9 highest conc. <50% cytotox. over control: 1000 µM; SCC −S9 highest conc. <50% cytotox. over control: 1000 µM
